Test results as given in US12357631B2 (priority 2018, dated 2025).

Target: PB2 (Influenza A virus, UniProt P03428)
Assay: biochemical
Format: binding

Sequence of PB2 (P03428 whole entry, looked up): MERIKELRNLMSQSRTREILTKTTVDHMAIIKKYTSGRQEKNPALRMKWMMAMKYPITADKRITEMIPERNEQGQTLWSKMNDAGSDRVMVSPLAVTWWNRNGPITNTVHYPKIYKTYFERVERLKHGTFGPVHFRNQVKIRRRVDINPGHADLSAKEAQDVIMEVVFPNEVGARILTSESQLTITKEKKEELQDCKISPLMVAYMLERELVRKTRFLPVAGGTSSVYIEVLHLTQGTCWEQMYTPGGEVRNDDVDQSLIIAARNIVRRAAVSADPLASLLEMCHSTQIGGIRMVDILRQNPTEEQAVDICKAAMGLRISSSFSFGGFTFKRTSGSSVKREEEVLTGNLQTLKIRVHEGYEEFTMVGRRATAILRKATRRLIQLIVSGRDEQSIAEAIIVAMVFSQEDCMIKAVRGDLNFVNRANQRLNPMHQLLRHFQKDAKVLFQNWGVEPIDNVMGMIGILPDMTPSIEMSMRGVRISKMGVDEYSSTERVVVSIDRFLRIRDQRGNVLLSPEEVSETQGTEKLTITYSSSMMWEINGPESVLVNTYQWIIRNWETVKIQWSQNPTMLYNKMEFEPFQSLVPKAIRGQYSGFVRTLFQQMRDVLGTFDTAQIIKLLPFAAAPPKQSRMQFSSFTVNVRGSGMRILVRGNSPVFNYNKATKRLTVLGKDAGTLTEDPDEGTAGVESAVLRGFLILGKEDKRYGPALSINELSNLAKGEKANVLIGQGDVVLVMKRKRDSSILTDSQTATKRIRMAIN

Compound | EC50 [µM]
CCOCCOCCOCC(=O)N[C@@H]1CCC[C@H](Nc2nc(-c3c[nH]c4ncc(F)cc34)ncc2F)C1 [Compound A263] | 25 to 50
CCOCCOCCOCCNC(=O)N[C@@H]1CCC[C@H](Nc2nc(-c3c[nH]c4ncc(F)cc34)ncc2F)C1 [Compound A164] | 25 to 50
Cc1cc(C(=O)N[C@H]2CCC[C@@H](Nc3nc(-c4c[nH]c5ncc(F)cc45)ncc3F)C2)ccn1 [Compound A51] | 5 to 25
O=C(NCc1ccccc1F)OCc1ccnc(C(=O)N[C@H]2CCC[C@@H](Nc3nc(-c4c[nH]c5ncc(F)cc45)ncc3F)C2)c1 [Compound A124] | > 100
CCCOCCCCCCCN(C)C(=O)N[C@@H]1CCC[C@H](Nc2nc(-c3c[nH]c4ncc(F)cc34)ncc2F)C1 [Compound A235] | 50 to 100
CCOCCOc1cccc(CC(=O)N[C@H]2CCC[C@@H](Nc3nc(-c4c[nH]c5ncc(F)cc45)ncc3F)C2)c1 [Compound A279] | > 100
CCOCCOCCCCCN(CC(N)=O)C(=O)N[C@@H]1CCC[C@H](Nc2nc(-c3c[nH]c4ncc(F)cc34)ncc2F)C1 [Compound A210] | 50 to 100
CCCCCCCCCCCN(Cc1ccccc1)C(=O)N[C@@H]1CCC[C@H](Nc2nc(-c3c[nH]c4ncc(F)cc34)ncc2F)C1 [Compound A185] | > 100
CCOCCOCCCCCN(C(=O)N[C@H]1CCC[C@@H](Nc2nc(-c3c[nH]c4ncc(F)cc34)ncc2F)C1)C1CC1 [Compound A242] | > 100
CCCCCOCCOCCNC(=O)N[C@@H]1CCC[C@H](Nc2nc(-c3c[nH]c4ncc(F)cc34)ncc2F)C1 [Compound A183] | 50 to 100
CCOC(=O)CCOCCOCCOCC(=O)N1CCC[C@@H](Nc2nc(-c3c[nH]c4ncc(F)cc34)ncc2F)C1 [Compound C6] | 5 to 25
CCOc1ccc(-c2ccnc(C(=O)N[C@@H]3CCC[C@H](Nc4nc(-c5c[nH]c6ncc(F)cc56)ncc4F)C3)c2)cc1 [Compound A62] | 5 to 25
O=C(NCc1ccncc1)OCc1ccnc(C(=O)N[C@H]2CCC[C@@H](Nc3nc(-c4c[nH]c5ncc(F)cc45)ncc3F)C2)c1 [Compound A108] | 5 to 25
CCOCCCc1cncc(CCN(C)C(=O)N[C@H]2CCC[C@@H](Nc3nc(-c4c[nH]c5ncc(F)cc45)ncc3F)C2)c1 [Compound A215] | > 100
CCOCCOCCOCCNC(=O)N(CCCc1ccccc1)[C@@H]1CCC[C@H](Nc2nc(-c3c[nH]c4ncc(F)cc34)ncc2F)C1 [Compound B3] | 50 to 100
O=C(N[C@H]1CCC[C@@H](Nc2nc(-c3c[nH]c4ncc(F)cc34)ncc2F)C1)c1cc(CC(O)CO)ccn1 (stereo partly shown) [Compound A50] | < 5
CCOc1ccccc1OCCCC1CCCN(C(=O)N[C@H]2CCC[C@@H](Nc3nc(-c4c[nH]c5ncc(F)cc45)ncc3F)C2)C1 (stereo partly shown) [Compound A8] | > 100
NCCOCCOCCOCC(=O)N[C@@H]1CCC[C@H](Nc2nc(-c3c[nH]c4ncc(F)cc34)ncc2F)C1 [Compound A267] | 25 to 50
CCOCCOCCCCCN(C(=O)N[C@@H]1CCC[C@H](Nc2nc(-c3c[nH]c4ncc(Cl)cc34)ncc2F)C1)C(C)C [Compound A248] | > 100
CCOCCCCCOCCN(C)C(=O)N[C@H]1CCC[C@@H](Nc2nc(-c3c[nH]c4ncc(F)cc34)ncc2F)C1 [Compound A193] | > 100
O=C(N[C@@H]1CCC[C@H](Nc2nc(-c3c[nH]c4ncc(F)cc34)ncc2F)C1)c1cc(CCCO)ccn1 [Compound A39] | < 5
COc1ccc(CNC(=O)OCc2ccnc(C(=O)N[C@H]3CCC[C@@H](Nc4nc(-c5c[nH]c6ncc(F)cc56)ncc4F)C3)c2)cc1 [Compound A73] | > 100
CCCCCOCCOCCN(Cc1ccccc1)C(=O)N[C@@H]1CCC[C@H](Nc2nc(-c3c[nH]c4ncc(F)cc34)ncc2F)C1 [Compound A179] | > 100
CCOc1ccccc1CNC(=O)OCc1ccnc(C(=O)N[C@H]2CCC[C@@H](Nc3nc(-c4c[nH]c5ncc(F)cc45)ncc3F)C2)c1 [Compound A133] | > 100
CCOc1ccc(CNC(=O)OCc2ccnc(C(=O)N[C@H]3CCC[C@@H](Nc4nc(-c5c[nH]c6ncc(F)cc56)ncc4F)C3)c2)cc1 [Compound A112] | > 100
CCOCc1ccnc(C(=O)N[C@H]2CCC[C@@H](Nc3nc(-c4c[nH]c5ncc(F)cc45)ncc3F)C2)c1 [Compound A43] | 5 to 25
CCOCCOCCCCCN1CC(=O)N([C@@H]2CCC[C@H](Nc3nc(-c4c[nH]c5ncc(F)cc45)ncc3F)C2)C1=O [Compound A5] | > 100
CCOCCC(=O)N(CC)Cc1ccnc(C(=O)N[C@@H]2CCC[C@H](Nc3nc(-c4c[nH]c5ncc(F)cc45)ncc3F)C2)c1 [Compound A69] | < 5

Compound | EC50 [µM]
CCOCCOCCCCCN(CC)C(=O)N[C@H]1CCC[C@@H](Nc2nc(-c3c[nH]c4ncc(F)cc34)ncc2F)C1 [Compound A227] | > 100
CN(CCOCCOCCOCCO)C(=O)N[C@@H]1CCC[C@H](Nc2nc(-c3c[nH]c4ncc(F)cc34)ncc2F)C1 [Compound A169] | 50 to 100
COc1ccccc1CNC(=O)OCc1ccnc(C(=O)N[C@H]2CCC[C@@H](Nc3nc(-c4c[nH]c5ncc(F)cc45)ncc3F)C2)c1 [Compound A122] | > 100
O=C(N[C@@H]1CCC[C@H](Nc2nc(-c3c[nH]c4ncc(F)cc34)ncc2F)C1)c1cc(COCCCCCOCc2ccc(F)cc2)ccn1 [Compound A95] | > 100
NCCOCCOCCOCCNC(=O)N[C@@H]1CCC[C@H](Nc2nc(-c3c[nH]c4ncc(F)cc34)ncc2F)C1 [Compound A170] | > 100
O=C(N[C@@H]1CCC[C@H](Nc2nc(-c3c[nH]c4ncc(F)cc34)ncc2F)C1)c1cncc(-c2ccccc2)c1 [Compound A67] | > 100
CCOCCOc1cccc(CCNC(=O)N[C@@H]2CCC[C@H](Nc3nc(-c4c[nH]c5ncc(F)cc45)ncc3F)C2)c1 [Compound A178] | > 100
CCOCc1cccc(COCCNC(=O)N[C@@H]2CCC[C@H](Nc3nc(-c4c[nH]c5ncc(F)cc45)ncc3F)C2)c1 [Compound A187] | 50 to 100
CCOCCOCCOCCNC(=O)N(CCOCCOCC)[C@@H]1CCC[C@H](Nc2nc(-c3c[nH]c4ncc(F)cc34)ncc2F)C1 [Compound B4] | > 100
CCCCCOCCCc1ccnc(C(=O)N[C@@H]2CCC[C@H](Nc3nc(-c4c[nH]c5ncc(F)cc45)ncc3F)C2)c1 [Compound A27] | > 100
CCOCCCc1ccnc(C(=O)N[C@@H]2CCC[C@H](Nc3nc(-c4c[nH]c5ncc(F)cc45)ncc3F)C2)c1 [Compound A38] | 25 to 50
CCCCCCOCCCCN(C)C(=O)N[C@H]1CCC[C@@H](Nc2nc(-c3c[nH]c4ncc(F)cc34)ncc2F)C1 [Compound A205] | > 100
O=C(N[C@H]1CCC[C@@H](Nc2nc(-c3c[nH]c4ncc(F)cc34)ncc2F)C1)N1CCCc2ccccc21 [Compound A1] | > 100
CCOCCOCCCCCN(C)C(=O)N(C)[C@H]1CCC[C@@H](Nc2nc(-c3c[nH]c4ncc(F)cc34)ncc2F)C1 [Compound A241] | > 100
NCCOCCOCCOCC(=O)N1CCC[C@H](Nc2nc(-c3c[nH]c4ncc(F)cc34)ncc2F)C1 [Compound C4] | 5 to 25
CCOCCOCCCCCN(C(=O)N[C@H]1CCC[C@@H](Nc2nc(-c3c[nH]c4ncc(F)cc34)ncc2Cl)C1)C(C)C [Compound A250] | > 100
CCOCCOCCCc1cncc(C(=O)N[C@H]2CCC[C@@H](Nc3nc(-c4c[nH]c5ncc(F)cc45)ncc3F)C2)c1 [Compound A23] | > 100
CCOCCCCCOCCN(Cc1ccccc1)C(=O)N[C@H]1CCC[C@@H](Nc2nc(-c3c[nH]c4ncc(F)cc34)ncc2F)C1 [Compound A196] | > 100
Cc1ccc(CNC(=O)OCc2ccnc(C(=O)N[C@H]3CCC[C@@H](Nc4nc(-c5c[nH]c6ncc(F)cc56)ncc4F)C3)c2)cc1 [Compound A138] | > 100
CCNC(=O)CNC(=O)OCc1ccnc(C(=O)N[C@H]2CCC[C@@H](Nc3nc(-c4c[nH]c5ncc(F)cc45)ncc3F)C2)c1 [Compound A111] | 5 to 25
CCOc1ccc(CNC(=O)OC(C)c2ccnc(C(=O)N[C@H]3CCC[C@@H](Nc4nc(-c5c[nH]c6ncc(F)cc56)ncc4F)C3)c2)cc1 (stereo partly shown) [Compound A139] | > 100
O=C(COCCOCCOCCO)N[C@@H]1CCC[C@H](Nc2nc(-c3c[nH]c4ncc(F)cc34)ncc2F)C1 [Compound A265] | 5 to 25
O=C(N[C@H]1CCC[C@@H](Nc2nc(-c3c[nH]c4ncc(F)cc34)ncc2F)C1)c1cc(COCCCCCOCc2ccncc2)ccn1 [Compound A103] | > 100
CCOCCOCCOCCNC(=O)N(CCCCc1ccccc1)[C@H]1CCC[C@@H](Nc2nc(-c3c[nH]c4ncc(F)cc34)ncc2F)C1 [Compound A194] | > 100
O=C(N[C@H]1CCC[C@@H](Nc2nc(-c3c[nH]c4ncc(F)cc34)ncc2F)C1)N1CCCC(CCCOCCO)C1 (stereo partly shown) [Compound A10] | 5 to 25
CCOc1ccccc1OCCCCCN(C)C(=O)N[C@@H]1CCC[C@H](Nc2nc(-c3c[nH]c4ncc(F)cc34)ncc2F)C1 [Compound A216] | > 100
CCOCc1cccc(COCCN(C)C(=O)N[C@@H]2CCC[C@H](Nc3nc(-c4c[nH]c5ncc(F)cc45)ncc3F)C2)c1 [Compound A184] | > 100

Target: PB2 CDlp7007 H3N2 (Influenza A virus, UniProt P31345)
Assay: biochemical
Format: binding

Sequence of PB2 CDlp7007 H3N2 (P31345 whole entry, looked up): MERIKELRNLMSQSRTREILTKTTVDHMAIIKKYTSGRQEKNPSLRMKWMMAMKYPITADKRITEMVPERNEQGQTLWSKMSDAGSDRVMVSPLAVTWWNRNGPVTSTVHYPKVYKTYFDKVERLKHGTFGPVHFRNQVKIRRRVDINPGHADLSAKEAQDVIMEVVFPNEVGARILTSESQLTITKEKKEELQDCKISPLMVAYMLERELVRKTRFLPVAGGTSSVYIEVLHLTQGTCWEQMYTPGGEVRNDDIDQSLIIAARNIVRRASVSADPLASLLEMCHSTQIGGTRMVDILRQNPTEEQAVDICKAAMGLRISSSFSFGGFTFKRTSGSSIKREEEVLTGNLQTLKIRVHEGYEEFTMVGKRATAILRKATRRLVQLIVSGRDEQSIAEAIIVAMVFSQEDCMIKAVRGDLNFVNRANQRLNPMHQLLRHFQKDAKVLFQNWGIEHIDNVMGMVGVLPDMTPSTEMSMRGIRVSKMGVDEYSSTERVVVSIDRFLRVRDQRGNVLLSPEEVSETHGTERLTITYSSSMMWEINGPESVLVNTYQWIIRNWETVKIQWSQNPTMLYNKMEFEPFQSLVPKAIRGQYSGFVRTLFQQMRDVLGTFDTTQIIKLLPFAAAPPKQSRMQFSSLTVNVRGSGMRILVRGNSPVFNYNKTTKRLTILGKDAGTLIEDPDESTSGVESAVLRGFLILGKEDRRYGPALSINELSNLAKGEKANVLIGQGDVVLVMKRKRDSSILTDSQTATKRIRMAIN

Compound | IC50 [µM]
CCOCCOCCCCC(=O)N[C@@H]1CCC[C@H](Nc2nc(-c3c[nH]c4ncc(F)cc34)ncc2F)C1 [Compound A270] | > 100
CCOCCOCCOCC(=O)N1CCC[C@H](Nc2nc(-c3c[nH]c4ncc(F)cc34)ncc2F)C1 [Compound C2] | 5 to 25
CCOCCOCCCCCN(C)C(=O)N[C@@H]1CCC[C@H](Nc2nc(-c3c[nH]c4ncc(F)cc34)ncc2F)C1 [Compound A181] | 50 to 100
CCOCCOCCOCC(=O)N[C@@H]1CCC[C@H](Nc2nc(-c3c[nH]c4ncc(F)cc34)ncc2F)C1 [Compound A263] | 25 to 50
CCOCCOCCOCCN(C)C(=O)N[C@@H]1CCC[C@H](Nc2nc(-c3c[nH]c4ncc(F)cc34)ncc2F)C1 [Compound A165] | 50 to 100
CCOCCOCCOCCNC(=O)N[C@@H]1CCC[C@H](Nc2nc(-c3c[nH]c4ncc(F)cc34)ncc2F)C1 [Compound A164] | 25 to 50
O=C(COCCOCCOCCO)N1CCC[C@H](Nc2nc(-c3c[nH]c4ncc(F)cc34)ncc2F)C1 [Compound C1] | 5 to 25

Target: PB2 CDlp7028 H3N2 (Influenza A virus, UniProt P31345)
Assay: biochemical
Format: binding

Sequence of PB2 CDlp7028 H3N2 (P31345 whole entry, looked up): as above

Compound | IC50 [µM]
CCOCCOCCCCC(=O)N[C@@H]1CCC[C@H](Nc2nc(-c3c[nH]c4ncc(F)cc34)ncc2F)C1 [Compound A270] | > 100
CCOCCOCCOCC(=O)N1CCC[C@H](Nc2nc(-c3c[nH]c4ncc(F)cc34)ncc2F)C1 [Compound C2] | 5 to 25
CCOCCOCCCCCN(C)C(=O)N[C@@H]1CCC[C@H](Nc2nc(-c3c[nH]c4ncc(F)cc34)ncc2F)C1 [Compound A181] | 25 to 50
CCOCCOCCOCCN(C)C(=O)N[C@@H]1CCC[C@H](Nc2nc(-c3c[nH]c4ncc(F)cc34)ncc2F)C1 [Compound A165] | 50 to 100
O=C(COCCOCCOCCO)N1CCC[C@H](Nc2nc(-c3c[nH]c4ncc(F)cc34)ncc2F)C1 [Compound C1] | 5 to 25
